According to US9573907B2, “2, 4-pyrimidine derivatives and use thereof” (SNU R&DB FOUNDATION, priority 2009, dated 2017):

Key:
gp96 V712A/L713A/F714Y = biological target: T1, gp96 V712A/L713A/F714Y (Homo sapiens, UniProt P14625, F718Y/L717A/V716A); test: Surface plasmon resonance, GPM1 binding to gp96 mutant V712A/L713A/F714Y
T1 construct: made in house; host or cells: Escherichia coli BL21 (DE3)
Description: (§1) Human gp96 was expressed as His tag fusion protein in Escherichia coli BL21 (DE3) and purified by nickel affinity chromatography. His-tagged human gp96 was immobilized onto CM5 sensor chips using standard amine coupling2. PBS was used as a running buffer. The carboxymethyl dextran surface within one side of the flow cell was activated with a 7-min injection of a 1:1 ratio of 0.4M EDC and 0.1M NHS. The protein was coupled to the surface with a 7-min injection of gp96 diluted in 10 mM sodium acetate, pH 3.7. Remaining activated groups were blocked with a 7-min injection of 1.0M ethanolamine, pH 8.5. GPM1 compound was dissolved directly in the PBS running buffer containing 1% DMSO and injected at a flow rate of 20 μl/min at 25° C. and the binding was determined by the change in resonance units (RU). The compound concentration varied from 10 nM to 25 μM and each concentration was tested at least three times. All of the bound complexes dissociated back to baseline within a reasonable time frame. Therefore, no regeneration was required. Sensorgram was processed by subtracting the binding response recorded from the control surface, followed by subtracting an average of the buffer blank injections from the reaction spot. To determine kinetic rate constants, all data sets were fit to a simple 1:1 binding with drifting baseline model using BIAevaluation program.
The present inventors compared the dose-dependent effect of GPM1 and NC1 on the interaction of gp96 and AIMP1 using ELISA. […] The present inventors monitored the binding kinetics of GPM1 to gp96 or AIMP1 by surface plasmon resonance (SPR) using BIAcore 3000. […] To further define the GPM1 binding region of gp96 (Han, J. M., Park, S. G., Liu, B., Park, B. J., Kim, J. Y., Jin, C. H., Song, Y. W., Li, Z. & Kim, S. Am. J. Pathol. 170, 2042-2054 (2007)), the present inventors introduced point mutations at L707, V706, V712, L713, F714, Y731 and M738 that are located within AIMP1 binding region of gp96 and monitored how the mutations at these sites would affect the binding of GPM1 to gp96 using SPR method.

[1] = biological target: T2, interaction of gp96 with AIMP1 (Mus musculus, UniProt P08113); test: Co-immunoprecipitation of gp96 with AIMP1 in RAW24.7 cells; assay type: cell-based; settings: 10 μM, 24 h
T2 construct: endogenous in cells; host or cells: RAW24.7 (RAW264.7) cells
T2 sequence (P08113 22-802): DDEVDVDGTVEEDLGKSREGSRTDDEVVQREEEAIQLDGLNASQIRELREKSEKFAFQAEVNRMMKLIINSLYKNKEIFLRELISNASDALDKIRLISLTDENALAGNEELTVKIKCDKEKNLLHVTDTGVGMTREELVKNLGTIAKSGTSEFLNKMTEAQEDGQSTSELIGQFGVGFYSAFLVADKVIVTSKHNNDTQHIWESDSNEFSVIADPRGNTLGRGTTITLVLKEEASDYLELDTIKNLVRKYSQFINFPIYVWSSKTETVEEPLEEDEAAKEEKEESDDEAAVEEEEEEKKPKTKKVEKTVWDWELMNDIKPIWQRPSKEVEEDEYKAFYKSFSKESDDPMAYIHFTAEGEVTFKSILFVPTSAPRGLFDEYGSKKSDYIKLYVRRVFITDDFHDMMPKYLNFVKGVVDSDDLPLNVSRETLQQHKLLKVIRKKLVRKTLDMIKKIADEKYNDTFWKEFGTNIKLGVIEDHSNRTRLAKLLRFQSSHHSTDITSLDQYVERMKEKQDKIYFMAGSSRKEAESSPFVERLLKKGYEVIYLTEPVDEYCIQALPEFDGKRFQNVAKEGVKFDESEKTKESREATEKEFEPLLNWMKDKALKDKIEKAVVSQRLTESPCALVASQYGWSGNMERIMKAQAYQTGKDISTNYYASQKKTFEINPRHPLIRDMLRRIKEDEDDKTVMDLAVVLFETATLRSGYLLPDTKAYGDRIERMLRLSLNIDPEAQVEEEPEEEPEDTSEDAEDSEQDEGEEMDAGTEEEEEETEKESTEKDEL
Description: FIGS. 1 to 9 represent suppression of cell surface gp96 by GPM1 reduces DC maturation and B220^+ population in gp96tm transgenic mice. (FIG. 1) Chemical structure of GPM1 (Formula 2) and negative control (NC1, Formula 16) used in this study. (FIG. 2) The dose-dependent effect of GPM1 or NC1 on the AIMP1-gp96 interaction using ELISA method as described. The indicated concentrations of the two compounds and biotin-conjugated murine gp96 were added to AIMP1 coated on the surface of microtiter wells, and gp96 bound to AIMP1 was detected with strepavidin-conjugated peroxidase. (FIG. 3) The binding of GPM1 to gp96 was examined by surface plasmon resonance (SPR). GPM1 at the indicated concentrations was injected to immobilized gp96 and the binding was measured using Biacore 3000. The response data were processed using data from a reference surface and buffer injections. Each concentration was tested in triplicate. (FIG. 4) RAW24.7 cells were treated with 10 μM GPM1 for 24 h. Cell lysates were immunoprecipitated with control IgG or anti-gp96 antibody and the immunoprecipitated proteins were immunoblotted with anti-KDELR1, antiAIMP1 and gp96 antibodies. WCL means whole cell lysate. […] TNFα secreted from BMDCs was quantified by ELISA. […]

gp96 = gp96 (Homo sapiens, UniProt P14625); test: Surface plasmon resonance, GPM1 binding to gp96 WT; set-up: made in house; host or cells: Escherichia coli BL21 (DE3)
gp96, sequence (P14625 22-803): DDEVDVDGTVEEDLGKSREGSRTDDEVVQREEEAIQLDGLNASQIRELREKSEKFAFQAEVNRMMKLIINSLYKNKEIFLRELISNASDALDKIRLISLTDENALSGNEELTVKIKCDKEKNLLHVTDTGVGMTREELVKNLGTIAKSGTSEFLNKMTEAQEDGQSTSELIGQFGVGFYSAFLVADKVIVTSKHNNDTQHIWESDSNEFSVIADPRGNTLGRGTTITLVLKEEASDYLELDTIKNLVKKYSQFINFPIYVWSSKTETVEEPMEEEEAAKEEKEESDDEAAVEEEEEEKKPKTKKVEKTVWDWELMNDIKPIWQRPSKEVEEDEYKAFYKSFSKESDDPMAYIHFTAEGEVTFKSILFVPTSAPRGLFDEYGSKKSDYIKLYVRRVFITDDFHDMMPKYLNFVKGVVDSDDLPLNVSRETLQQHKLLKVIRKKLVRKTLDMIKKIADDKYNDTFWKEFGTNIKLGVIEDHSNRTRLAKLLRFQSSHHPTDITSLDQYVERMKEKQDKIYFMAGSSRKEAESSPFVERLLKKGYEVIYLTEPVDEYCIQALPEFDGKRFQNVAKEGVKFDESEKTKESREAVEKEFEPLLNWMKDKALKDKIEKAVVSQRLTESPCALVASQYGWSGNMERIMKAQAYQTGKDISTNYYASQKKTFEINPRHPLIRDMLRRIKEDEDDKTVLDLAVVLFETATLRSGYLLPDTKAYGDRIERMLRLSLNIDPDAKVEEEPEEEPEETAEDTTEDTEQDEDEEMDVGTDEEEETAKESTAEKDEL
Description: as §1

T1 sequence (P14625 22-803 V716A/L717A/F718Y): as the sequence (P14625 22-803) above, with V695A, L696A, F697Y counted along it

COC(=O)[C@@H](Oc1nc(OC)cc(OC)n1)C(C)C [GPM1, (S)-methyl 2-(4,6-dimethoxypyrimidin-2-yloxy)-3-methylbutanoate]
Kd (gp96 V712A/L713A/F714Y): 21.9 µM
koff (dissociation rate constant) (gp96 V712A/L713A/F714Y): 0.0142 s⁻¹
kon (gp96 V712A/L713A/F714Y; read-out: Ka): 650 M⁻¹ s⁻¹
interaction of gp96 with AIMP1 [1]: decreased
Kd (gp96): 0.0879 µM
koff (dissociation rate constant) (gp96): 0.0154 s⁻¹
kon (gp96; read-out: Ka): 175000 M⁻¹ s⁻¹
